Data taken from PubChem BioAssay AID264 (DTP/NCI, 2004).
Values joined by “and” are separate entries in the source; they are usually repeats but may differ in a detail not shown here. Identical values can stand only once. Results filed as inconclusive are left out.

Tested on: nude mice, LX-1 lung xenograft intrarenal, tumor weight T/C
Test: NCI In Vivo Anticancer Drug Screen. Data for tumor model Human Lung LX-1 Xenograft (intrarenal inoculation) in NU/NU Swiss (nude) mice
Conditions: endpoint: mean tumor weight change, higher = larger tumour
In short: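 Antitumor effect is expressed as a ratio: the mean tumor measurement of the drug-treated group relative to that of the vehicle-dosed control group.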

[1] = dose: 6.25 mg/kg/injection, schedule: Q04DX003 (sc), vehicle: saline with Tween-80
[2] = dose: 12.5 mg/kg/injection, schedule: Q04DX003 (sc), vehicle: saline with Tween-80
[3] = dose: 25.0 mg/kg/injection, schedule: Q04DX003 (sc), vehicle: saline with Tween-80
[4] = dose: 50.0 mg/kg/injection, schedule: Q04DX003 (sc), vehicle: saline with Tween-80
[5] = dose: 50.0 mg/kg/injection, schedule: Q01DX010 (sc), vehicle: saline
[6] = dose: 150.0 mg/kg/injection, schedule: Q04DX003 (sc), vehicle: saline
[7] = dose: 300.0 mg/kg/injection, schedule: Q04DX003 (sc), vehicle: saline
[8] = dose: 600.0 mg/kg/injection, schedule: Q04DX003 (sc), vehicle: saline
[9] = dose: 18.75 mg/kg/injection, schedule: Q04DX003 (sc), vehicle: saline with Tween-80
[10] = dose: 75.0 mg/kg/injection, schedule: Q04DX003 (sc), vehicle: saline with Tween-80
[11] = dose: 150.0 mg/kg/injection, schedule: Q04DX003 (sc), vehicle: saline with Tween-80

CC[N](CC)[Ge]([CH2]C)[CH2]C.CC[N](CC)[Ge]([CH2]C)[CH2]C
T/C (dose: 12.5 mg/kg/injection, schedule: Q01DX010 (sc), vehicle: suspension in saline): 67 % of control
T/C (dose: 25.0 mg/kg/injection, schedule: Q01DX010 (sc), vehicle: suspension in saline): 89 % of control
T/C (dose: 50.0 mg/kg/injection, schedule: Q01DX010 (sc), vehicle: suspension in saline): 77 % of control

CC(C)(C)N1CC1CNC(=O)C(=O)NCC1CN1C(C)(C)C (configuration not stated)
T/C [1]: 87 % of control
T/C [2]: 76 % of control
T/C [3]: 70 % of control

O=C/C(Cl)=C(/Cl)C(=O)O
T/C (dose: 5.0 mg/kg/injection, schedule: Q01DX010 (sc), vehicle: saline with Tween-80): 124 % of control
T/C (dose: 10.0 mg/kg/injection, schedule: Q01DX010 (sc), vehicle: saline with Tween-80): 210 % of control
T/C (dose: 20.0 mg/kg/injection, schedule: Q01DX010 (sc), vehicle: saline with Tween-80): 72 % of control and 213 % of control
T/C (dose: 40.0 mg/kg/injection, schedule: Q01DX010 (sc), vehicle: saline with Tween-80): 48 % of control and 65 % of control

CCN1/C(=C/C=C/C=C\C=C\c2sc3ccc4ccccc4c3[n+]2CC)Sc2ccc3ccccc3c21
T/C [1]: 156 % of control
T/C [2]: 116 % of control
T/C [3]: 78 % of control
T/C [4]: 122 % of control

CC(=O)N(C)c1ccc(Nc2cc(C)[nH]c3ccc4ncnc4c23)cc1
T/C [4]: 101 % of control
T/C (dose: 100.0 mg/kg/injection, schedule: Q04DX003 (sc), vehicle: saline with Tween-80): 71 % of control
T/C (dose: 200.0 mg/kg/injection, schedule: Q04DX003 (sc), vehicle: saline with Tween-80): 56 % of control

COC1C(CO)OC(n2cnc3c(=S)nc(N)[nH]c32)C1O (configuration not stated)
T/C (dose: 75.0 mg/kg/injection, schedule: Q04DX003 (sc), vehicle: Klucel (hydroxypropylcellulose) (HPC)): 118 % of control
T/C (dose: 150.0 mg/kg/injection, schedule: Q04DX003 (sc), vehicle: Klucel (hydroxypropylcellulose) (HPC)): 110 % of control
T/C (dose: 300.0 mg/kg/injection, schedule: Q04DX003 (sc), vehicle: Klucel (hydroxypropylcellulose) (HPC)): 86 % of control
T/C (dose: 600.0 mg/kg/injection, schedule: Q04DX003 (sc), vehicle: Klucel (hydroxypropylcellulose) (HPC)): 66 % of control

CCC[CH2][Sn]1([CH2]CCC)[O]C2C(CO)OC(n3ccc(N)nc3=O)C2[O]1 (configuration not stated)
T/C (dose: 12.0 mg/kg/injection, schedule: Q04DX003 (sc), vehicle: Klucel (hydroxypropylcellulose) (HPC)): 82 % of control
T/C (dose: 24.0 mg/kg/injection, schedule: Q04DX003 (sc), vehicle: Klucel (hydroxypropylcellulose) (HPC)): 66 % of control
T/C (dose: 48.0 mg/kg/injection, schedule: Q04DX003 (sc), vehicle: Klucel (hydroxypropylcellulose) (HPC)): 115 % of control

COc1cccc2c1C(=O)c1c(O)c3c(c(O)c1C2=O)C[C@@](O)(C(=O)CO)C[C@@H]3OC1CC(N)C(O)C(C)O1 (some centres not stated)
T/C (dose: 4.0 mg/kg/injection, schedule: Q04DX003 (sc), vehicle: water): 45 % of control and 53 % of control
T/C (dose: 4.5 mg/kg/injection, schedule: Q04DX003 (sc), vehicle: saline): 72 % of control
T/C (dose: 9.0 mg/kg/injection, schedule: Q04DX003 (sc), vehicle: saline): 44 % of control

N=C(N)Sc1ccccn1
T/C (dose: 1.25 mg/kg/injection, schedule: Q01DX010 (sc), vehicle: saline): 83 % of control
T/C (dose: 2.5 mg/kg/injection, schedule: Q01DX010 (sc), vehicle: saline): 72 % of control
T/C (dose: 5.0 mg/kg/injection, schedule: Q01DX010 (sc), vehicle: saline): 52 % of control
T/C (dose: 10.0 mg/kg/injection, schedule: Q01DX010 (sc), vehicle: saline): 29 % of control
T/C (dose: 25.0 mg/kg/injection, schedule: Q01DX010 (sc), vehicle: saline): 158 % of control
T/C [5]: 167 % of control

O=c1n(CC2CO2)c(=O)n(CC2CO2)n1CC1CO1 (configuration not stated)
T/C (dose: 12.5 mg/kg/injection, schedule: Q04DX003 (sc), vehicle: saline): 74 % of control
T/C (dose: 25.0 mg/kg/injection, schedule: Q04DX003 (sc), vehicle: saline): 77 % of control

O=CC(=O)c1ccc(O)cc1
T/C [6]: 51 % of control
T/C [7]: 49 % of control
T/C [8]: 58 % of control

CC[C@]1(O)C[C@H]2CN(CCc3c([nH]c4ccccc34)[C@@](C(=O)OC)(c3cc4c(cc3OC)N(C=O)[C@H]3[C@@](O)(C(=O)OC)[C@H](OC(C)=O)[C@]5(CC)C=CCN6CC[C@]43[C@@H]65)C2)C1
T/C (dose: 0.13 mg/kg/injection, schedule: Q01DX010 (sc), vehicle: saline): 69 % of control
T/C (dose: 0.25 mg/kg/injection, schedule: Q01DX010 (sc), vehicle: saline): 102 % of control
T/C (dose: 0.5 mg/kg/injection, schedule: Q01DX010 (sc), vehicle: saline): 1 % of control

Clc1cc(Cl)c(C[N+]23CN4CN(CN(C4)C2)C3)cc1Cl
T/C [9]: 76 % of control
T/C (dose: 37.5 mg/kg/injection, schedule: Q04DX003 (sc), vehicle: saline with Tween-80): 96 % of control
T/C [10]: 91 % of control
T/C [11]: 107 % of control

NC(Cc1ccc(N(CCCl)CCCl)cc1)C(=O)O (configuration not stated)
T/C (dose: 2.5 mg/kg/injection, schedule: Q04DX003 (sc), vehicle: Klucel (hydroxypropylcellulose) (HPC)): 75 % of control
T/C (dose: 5.0 mg/kg/injection, schedule: Q04DX003 (sc), vehicle: Klucel (hydroxypropylcellulose) (HPC)): 105 % of control
T/C (dose: 40.0 mg/kg/injection, schedule: Q04DX003 (sc), vehicle: Klucel (hydroxypropylcellulose) (HPC)): 22 % of control

CC(=O)c1c(O)c(C)c(O)c2c1OC1=CC(=O)C(C(C)=O)C(=O)C12C (configuration not stated)
T/C (dose: 25.0 mg/kg/injection, schedule: Q01DX010 (sc), vehicle: sodium bicarbonate): 207 % of control
T/C (dose: 50.0 mg/kg/injection, schedule: Q01DX010 (sc), vehicle: sodium bicarbonate): 102 % of control
T/C (dose: 200.0 mg/kg/injection, schedule: Q01DX010 (sc), vehicle: sodium bicarbonate): 82 % of control and 104 % of control

COc1cc(Cc2nccc3cc(OC)c(OC)cc23)c(C(C)=O)cc1OC
T/C [6]: 87 % of control
T/C [7]: 88 % of control
T/C [8]: 99 % of control
T/C (dose: 1200.0 mg/kg/injection, schedule: Q04DX003 (sc), vehicle: saline): 87 % of control

CC1CN1P1(N2CC2C)=NP(N2CC2C)(N2CC2C)=NP(N2CC2C)(N2CC2C)=N1 (configuration not stated)
T/C [5]: 47 % of control and 60 % of control and 67 % of control
T/C (dose: 100.0 mg/kg/injection, schedule: Q01DX010 (sc), vehicle: saline): 14 % of control and 15 % of control and 25 % of control

C1CN2CCC1CC2
T/C (dose: 4.69 mg/kg/injection, schedule: Q04DX003 (sc), vehicle: saline with Tween-80): 96 % of control
T/C (dose: 9.38 mg/kg/injection, schedule: Q04DX003 (sc), vehicle: saline with Tween-80): 73 % of control
T/C [9]: 68 % of control

Nc1nc(N)c2cc(S(=O)(=O)c3ccccc3)ccc2n1
T/C [11]: 116 % of control
T/C (dose: 300.0 mg/kg/injection, schedule: Q04DX003 (sc), vehicle: saline with Tween-80): 77 % of control
T/C (dose: 600.0 mg/kg/injection, schedule: Q04DX003 (sc), vehicle: saline with Tween-80): 87 % of control
T/C (dose: 1200.0 mg/kg/injection, schedule: Q04DX003 (sc), vehicle: saline with Tween-80): 95 % of control

CN(N=O)C(=O)N[C@@H](C=O)[C@@H](O)[C@H](O)[C@H](O)CO
T/C (dose: 75.0 mg/kg/injection, schedule: Q04DX003 (sc), vehicle: other): 32 % of control
T/C (dose: 75.0 mg/kg/injection, schedule: Q04DX003 (sc), vehicle: saline): 39 % of control
T/C (dose: 150.0 mg/kg/injection, schedule: Q04DX003 (sc), vehicle: other): 10 % of control
T/C [6]: 22 % of control
T/C [7]: -56 % of control

CN(C)CCN1C(=O)c2cccc3cc(N)cc(c23)C1=O
T/C (dose: 16.0 mg/kg/injection, schedule: Q04DX003 (sc), vehicle: saline with Tween-80): 157 % of control
T/C (dose: 64.0 mg/kg/injection, schedule: Q04DX003 (sc), vehicle: saline with Tween-80): 113 % of control

CC(=O)CC(C)=O.CC(=O)CC(C)=O.O=N[O-].O=N[O-].[Co]
T/C [10]: 114 % of control

C[C@@](O)(/C=C/[C@H]1CC=CC(=O)O1)[C@@H](C[C@@H](O)\C=C/C=C\C=C\CO)OP(=O)(O)O
T/C (dose: 7.5 mg/kg/injection, schedule: Q04DX003 (sc), vehicle: other): 160 % of control
T/C (dose: 15.0 mg/kg/injection, schedule: Q04DX003 (sc), vehicle: other): 168 % of control

COc1cccc2c1C(=O)c1c(O)c3c(c(O)c1C2=O)C[C@@](O)(C(=O)COC(=O)c1cccnc1)C[C@@H]3OC1CC(N)C(O)C(C)O1 (some centres not stated)
T/C (dose: 3.0 mg/kg/injection, schedule: Q04DX003 (sc), vehicle: saline): 120 % of control
T/C (dose: 12.0 mg/kg/injection, schedule: Q04DX003 (sc), vehicle: saline): 75 % of control
T/C (dose: 24.0 mg/kg/injection, schedule: Q04DX003 (sc), vehicle: saline): 83 % of control
